Usually Ki stands for a dissociation constant, usually derived from enzyme kinetics or from competition with a known ligand. Read a high Ki as a looser hold on the target.

This assay addresses 5-hydroxytryptamine receptor 2B (Homo sapiens, UniProt P41595).

Several values for one entry are separate records, joined by “and”; a condition that tells them apart may be missing. Equal values may be shown once.

Sequence of 5-hydroxytryptamine receptor 2B (P41595 whole entry): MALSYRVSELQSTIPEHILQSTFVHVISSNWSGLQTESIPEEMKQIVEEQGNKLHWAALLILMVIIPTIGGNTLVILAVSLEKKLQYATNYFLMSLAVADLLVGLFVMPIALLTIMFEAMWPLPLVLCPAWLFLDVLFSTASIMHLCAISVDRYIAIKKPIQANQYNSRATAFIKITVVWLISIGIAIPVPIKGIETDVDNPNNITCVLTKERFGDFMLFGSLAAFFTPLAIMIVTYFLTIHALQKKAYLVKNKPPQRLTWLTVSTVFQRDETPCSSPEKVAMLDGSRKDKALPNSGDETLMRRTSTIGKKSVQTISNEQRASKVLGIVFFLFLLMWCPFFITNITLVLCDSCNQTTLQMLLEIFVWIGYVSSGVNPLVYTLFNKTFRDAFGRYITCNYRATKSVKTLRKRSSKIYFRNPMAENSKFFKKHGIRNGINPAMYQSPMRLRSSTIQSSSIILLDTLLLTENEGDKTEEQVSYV

`CN1C[C@@H](NS(=O)(=O)N(C)C)C[C@@H]2c3cccc4c3c(cn4C)C[C@H]21` [MESULERGINE]: the inhibition constant Ki is 3.3 nM and 1.92 nM.

For `O=C1NCN(c2ccccc2)C12CCN(CC1COc3ccccc3O1)CC2` (stereo not drawn) [8-(2,3-Dihydro-benzo[1,4]dioxin-2-ylmethyl)-1-phenyl-1,3,8-triaza-spiro[4.5]decan-4-one], the Ki was 475 nM and 173 nM. Turning to `O=C(CCCN1CCC2(CC1)C(=O)NCN2c1ccccc1)c1ccc(F)cc1` [8-[4-(4-fluorophenyl)-4-oxidanylidene-butyl]-1-phenyl-1,3,8-triazaspiro[4.5]decan-4-one], the Ki is 592 nM and 317 nM. The molecule `c1ccc2c(N3CCNCC3)cccc2c1` had a Ki of 0.89 nM. In other words, the sub-nanomolar range. With `CCN(CC)C(=O)[C@@H]1C=C2c3cccc4[nH]c(Br)c(c34)C[C@H]2N(C)C1` [LSD,2-Bromo] the figure was 8.09 nM and 7.47 nM.

For the molecule `CN(C)CCC(c1ccc(Cl)cc1)c1ccccn1` (stereo not drawn) [clorfeniramina], the inhibition constant Ki was 6800 nM and 4170 nM. Turning to `Cc1nc2sccn2c(=O)c1CCN1CCC(=C(c2ccc(F)cc2)c2ccc(F)cc2)CC1`, the Ki was 1.64 nM and 0.4 nM. Turning to `CC(O)C(C)OC(=O)C1CC2c3cccc4c3c(cn4C(C)C)CC2N(C)C1` (stereo not drawn) [CAS_60634-51-7], the Ki was 1.53 nM and 0.74 nM.

For the origin of these results see BindingDB's records for doi:10.1007/pl00005133 (Eli Lilly, 1998).
